From BindingDB's records for doi:10.1016/j.bmcl.2006.03.030 (Gsk, 2006)
pEC50: −log10 of the molar value.

target: Transient receptor potential cation channel subfamily V member 1 (Homo sapiens, UniProt Q8NER1); experiment: FLIPR (Fluorescence Imaging Plate Reader)-Based Ca2+ Assay; settings: pH 7.2; 25 °C
Method: One day before the assay was performed, human TRPV1 expressed in 1321N1 astrocytoma cells were plated onto 96-well assay plates and grown until 2.5 h before the assay, and the cells were loaded with the Ca2+ reporter dye Fluo3-AM for 2 h at room temperature. After this, the cells were washed, and continuously being incubated for 30 min with medium containing test compounds at a range of different concentrations. The plates were then placed into a FLIPR to monitor fluorescence (excitation @ 488 nm and emission @540 nm) before and after the addition of capsaicin, antagonist potency was determined versus an EC80 concentration of capsaicin that was determined empirically on the day of the experiment.

Transient receptor potential cation channel subfamily V member 1, sequence (Q8NER1 whole entry): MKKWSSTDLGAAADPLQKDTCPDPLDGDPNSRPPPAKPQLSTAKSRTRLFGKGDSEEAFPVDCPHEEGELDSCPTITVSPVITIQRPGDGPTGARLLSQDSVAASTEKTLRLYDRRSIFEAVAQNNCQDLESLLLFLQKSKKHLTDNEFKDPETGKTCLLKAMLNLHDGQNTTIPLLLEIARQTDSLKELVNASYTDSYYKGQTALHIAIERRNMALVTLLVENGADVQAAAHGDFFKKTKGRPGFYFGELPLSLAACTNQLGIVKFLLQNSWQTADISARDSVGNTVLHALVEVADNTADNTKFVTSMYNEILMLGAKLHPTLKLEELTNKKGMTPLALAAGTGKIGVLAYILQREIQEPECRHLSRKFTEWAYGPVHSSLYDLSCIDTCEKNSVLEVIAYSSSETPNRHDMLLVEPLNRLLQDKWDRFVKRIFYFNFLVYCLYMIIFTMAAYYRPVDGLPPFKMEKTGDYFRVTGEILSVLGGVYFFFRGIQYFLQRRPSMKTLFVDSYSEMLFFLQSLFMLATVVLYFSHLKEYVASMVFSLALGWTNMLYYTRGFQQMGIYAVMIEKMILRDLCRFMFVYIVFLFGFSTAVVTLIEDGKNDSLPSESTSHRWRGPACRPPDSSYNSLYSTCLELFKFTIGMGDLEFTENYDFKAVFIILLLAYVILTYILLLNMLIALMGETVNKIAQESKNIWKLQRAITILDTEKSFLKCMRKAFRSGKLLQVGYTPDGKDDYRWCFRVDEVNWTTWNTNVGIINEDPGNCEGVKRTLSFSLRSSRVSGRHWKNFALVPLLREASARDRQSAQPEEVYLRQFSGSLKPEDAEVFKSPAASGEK

Going from `O=C(NCCN1CCc2ccccc21)Nc1ccccc1Br` [1-(2-bromophenyl)-3-[2-(2,3-dihydro-1H-indol-1-yl)ethyl]urea] to `O=C(NCCN1CCc2cc(F)ccc21)Nc1ccccc1Br` [1-(2-bromophenyl)-3-[2-(5-fluoro-2,3-dihydro-1H-indol-1-yl)ethyl]urea], the pEC50 rises from 6.80 to 7.10 (0.30 log units).

`O=C(NCCN1CCc2c(F)cccc21)Nc1ccccc1Br` [1-(2-bromophenyl)-3-[2-(4-fluoro-2,3-dihydro-1H-indol-1-yl)ethyl]urea] and `Cc1cccc2c1CCN2CCNC(=O)Nc1ccccc1Br` [1-(2-bromophenyl)-3-[2-(4-methyl-2,3-dihydro-1H-indol-1-yl)ethyl]urea] are the same in pEC50: 7.40 for the first, 7.40 for the second.

`Cc1ccc2c(c1)CCN2CCNC(=O)Nc1ccccc1Br` [1-(2-bromophenyl)-3-[2-(5-methyl-2,3-dihydro-1H-indol-1-yl)ethyl]urea] and `Cc1ccc2c(c1)CCCN2CCNC(=O)Nc1ccccc1Br` [3-(2-bromophenyl)-1-[2-(6-methyl-1,2,3,4-tetrahydroquinolin-1-yl)ethyl]urea] are within 0.2 log units of each other in pEC50: 7.30 for the first, 7.40 for the second.

Compared with `O=C(Nc1ccccc1Br)N[C@@H]1CCN(c2ccc(F)c(F)c2)C1` [1-(2-bromophenyl)-3-[(3R)-1-(3,4-difluorophenyl)pyrrolidin-3-yl]urea], `Cc1ccc(N2CC[C@@H](NC(=O)Nc3ccccc3Br)C2)cc1F` [1-(2-bromophenyl)-3-[(3R)-1-(3-fluoro-4-methylphenyl)pyrrolidin-3-yl]urea] is 0.20 log units higher in pEC50: 8.10 for the first, 8.30 for the second. The second is the more potent here.

`O=C(Nc1ccccc1Br)N[C@@H]1CCN(c2cccc(F)c2)C1` [1-(2-bromophenyl)-3-[(3R)-1-(3-fluorophenyl)pyrrolidin-3-yl]urea] and `Cc1cccc(N2CC[C@@H](NC(=O)Nc3ccccc3Br)C2)c1` [1-(2-bromophenyl)-3-[(3R)-1-(3-methylphenyl)pyrrolidin-3-yl]urea] are within 0.2 log units of each other in pEC50: 7.80 for the first, 7.70 for the second.

`O=C(Nc1ccccc1Br)N[C@@H]1CCN(c2ccc(Br)cn2)C1` [1-(2-bromophenyl)-3-[(3R)-1-(5-bromopyridin-2-yl)pyrrolidin-3-yl]urea] and `O=C(Nc1ccccc1Br)N[C@@H]1CCN(c2ccc(Cl)cn2)C1` [1-(2-bromophenyl)-3-[(3R)-1-(5-chloropyridin-2-yl)pyrrolidin-3-yl]urea] are within 0.2 log units of each other in pEC50: 7.20 for the first, 7.30 for the second.

First: N#Cc1ccc(N2CC[C@@H](NC(=O)Nc3ccccc3Br)C2)nc1 [1-(2-bromophenyl)-3-[(3R)-1-(5-cyanopyridin-2-yl)pyrrolidin-3-yl]urea]
Second: Cc1ccc(N2CC[C@@H](NC(=O)Nc3ccccc3Br)C2)nc1 [1-(2-bromophenyl)-3-[(3R)-1-(5-methylpyridin-2-yl)pyrrolidin-3-yl]urea]
The pEC50 of the first is higher: 6.70 for the first, less than 6.70 for the second. The first is the more potent here.

First: O=C(Nc1ccccc1Br)N[C@@H]1CCN(c2ccccn2)C1 [1-(2-bromophenyl)-3-[(3R)-1-(pyridin-2-yl)pyrrolidin-3-yl]urea]
Second: O=C(Nc1ccccc1Br)N[C@@H]1CCN(c2cc(C(F)(F)F)ccn2)C1 [1-(2-bromophenyl)-3-[(3R)-1-[4-(trifluoromethyl)pyridin-2-yl]pyrrolidin-3-yl]urea]
The pEC50 of the first is lower: less than 6.60 for the first, 6.90 for the second. The second is the more potent here.

Going from `O=C(Nc1ccccc1Br)N[C@@H]1CCN(c2ncccc2C(F)(F)F)C1` [1-(2-bromophenyl)-3-[(3R)-1-[3-(trifluoromethyl)pyridin-2-yl]pyrrolidin-3-yl]urea] to `O=C(Nc1ccccc1Br)N[C@@H]1CCN(c2ccc(C(F)(F)F)cn2)C1` [1-(2-bromophenyl)-3-[(3R)-1-[5-(trifluoromethyl)pyridin-2-yl]pyrrolidin-3-yl]urea], the pEC50 rises from 7.10 to 7.49 (0.39 log units).

First: O=C(Nc1ccccc1Br)N[C@@H]1CCN(c2cccc(C(F)(F)F)n2)C1 [1-(2-bromophenyl)-3-[(3R)-1-[6-(trifluoromethyl)pyridin-2-yl]pyrrolidin-3-yl]urea]
Second: Cc1cccc(N2CC[C@H](NC(=O)Nc3ccccc3Br)C2)c1 [1-(2-bromophenyl)-3-[(3S)-1-(3-methylphenyl)pyrrolidin-3-yl]urea]
The pEC50 of the first is higher: 7.20 for the first, less than 6.80 for the second.
